Source: ChEMBL document CHEMBL1135003, “Synthesis of aglycon analogues of sarmentosin and their bioactivity of lymphocyte proliferation” (2002)

Tests used:
Type in all cases: functional
[1] = In vitro effect on the proliferation of B lymphocytes of mouse splenocytes at 0.2 umol/L to show the antibody formation by [3H]thymidine incorporation
[2] = In vitro effect on the proliferation of B lymphocytes of mouse splenocytes at 2.0 umol/L to show the antibody formation by [3H]thymidine incorporation
[3] = In vitro effect on the proliferation of B lymphocytes of mouse splenocytes at 20 umol/L to show the antibody formation by [3H]thymidine incorporation
[4] = In vitro effect on the proliferation of T lymphocytes of mouse splenocytes at 20 umol/L to show the cell-mediated immunity by [3H]thymidine incorporation
[5] = In vitro effect on the proliferation of T lymphocytes of mouse splenocytes at 0.2 umol/L to show the cell-mediated immunity by [3H]thymidine incorporation
[6] = In vitro effect on the proliferation of T lymphocytes of mouse splenocytes at 2 umol/L to show the cell-mediated immunity by [3H]thymidine incorporation

Row | Structure (SMILES) | Activity [1] [%] | Activity [2] [%] | Activity [3] [%] | Activity [4] [%] | Activity [5] [%] | Activity [6] [%]
1 | N#C/C(=C\COC(=O)c1ccccc1)CO | 137 | 73 | 67 | 23 | 97 | 68
2 | N#C/C(=C\COC(=O)/C=C/c1ccccc1)CO | 96 | 69 | 20 | 38 | 80 | 62
3 | N#C/C(=C\COC(=O)c1ccc(F)cc1Cl)CO | 151 | 151 | 113 | 29 | 123 | 98
4 | COc1ccc(COC/C=C(\C#N)CO)cc1 | 169 | 71 | 38 | 37 | 93 | 54
5 | N#C/C(=C\COC(=O)c1ccc(Cl)cc1Cl)CO | 68 | 69 | 73 | 131 | 119 | 94
6 | N#C/C(=C\COc1ccccc1)CO | 51 | 48 | 45 | 131 | 100 | 113
7 | COc1ccc(OC/C=C(\C#N)CO)cc1 | 81 | 77 | 79 | 80 | 101 | 114
8 | COc1ccc(C(=O)OC/C=C(\C#N)CO)cc1 | 109 | 86 | 31 | 25 | 100 | 63
